Calls of active or inactive are those of the source. The calls are words filed in the database; no cut-off is given here.
Legend:
[1] = Cytotoxicity against human LX-2 cells assessed as reduction in cell viability measured after 48 hrs by CCK-8 assay; assay type: toxicity, cell-based
RAW264.7 [2] = experiment: Inhibition of LPS-induced NFkappaB transcriptional activity in mouse RAW264.7 cells at 5 uM preincubated for 2 hrs followed by LPS stimulation and measured after 6 hrs by luciferase reporter gene assay relative to control; assay type: cell-based; conditions: time 8.0 hrs
RAW264.7 [3] = experiment: Inhibition of LPS-induced NFkappaB transcriptional activity in mouse RAW264.7 cells at 10 uM preincubated for 2 hrs followed by LPS stimulation and measured after 6 hrs by luciferase reporter gene assay relative to control; assay type: cell-based; conditions: time 8.0 hrs
RAW264.7 [4] = experiment: Inhibition of LPS-induced NFkappaB transcriptional activity in mouse RAW264.7 cells at 20 uM preincubated for 2 hrs followed by LPS stimulation and measured after 6 hrs by luciferase reporter gene assay relative to control; assay type: cell-based; conditions: time 8.0 hrs
LX-2 [5] = experiment: Inhibition of FBS-induced cell migration in human LX-2 cells assessed as reduction in wound healing measured after 24 hrs by scratch wound assay; assay type: functional, cell-based; conditions: dose 5-20 µM
LX-2 [6] = experiment: Inhibition of FBS-induced cell migration in human LX-2 cells assessed as reduction in number of migrated cells measured after 24 hrs by crystal violet staining based transwell assay; assay type: functional; conditions: dose 5-20 µM
RAW264.7 [7] = experiment: Antiinflammatory activity in mouse RAW264.7 cells assessed as inhibition of LPS-induced collagen 1 expression at 5 to 20 uM preincubated for 2 hrs followed by LPS stimulation and measured after 48 hrs by Western blot analysis; assay type: functional, cell-based; conditions: dose 5-20 µM, time 50.0 hrs
RAW264.7 [8] = experiment: Antiinflammatory activity in mouse RAW264.7 cells assessed as inhibition of TGFbeta1-induced alpha-SMA expression at 5 to 20 uM preincubated for 2 hrs […] and measured after 48 hrs by Western blot analysis; assay type: functional, cell-based; conditions: dose 5-20 µM, time 50.0 hrs
Mus musculus [9] = experiment: Antifibrotic activity against CCL4-induced C57BL/6J mouse hepatic fibrosis model assessed as reduction in hard texture of liver at 15 to 30 mg/kg, po administered via gavage for 4 weeks starting from 5th week of CCL4 stimulation; assay type: functional, organism-based; conditions: dose 15-30 mg/kg
Mus musculus [10] = experiment: Antifibrotic activity against CCL4-induced C57BL/6J mouse hepatic fibrosis model assessed as reduction in liver edema at 15 to 30 mg/kg, po administered via gavage for 4 weeks starting from 5th week of CCL4 stimulation by H and E staining based histopathological analysis; assay type: functional, organism-based; conditions: dose 15-30 mg/kg
Mus musculus [11] = experiment: Antifibrotic activity against CCL4-induced C57BL/6J mouse hepatic fibrosis model assessed as reduction in necrosis of hepatocytes at 15 to 30 mg/kg, po administered via gavage for 4 weeks starting from 5th week of CCL4 stimulation by H and E staining based histopathological analysis; assay type: functional, organism-based; conditions: dose 15-30 mg/kg
Mus musculus [12] = experiment: Antifibrotic activity against CCL4-induced C57BL/6J mouse hepatic fibrosis model assessed as reduction in collagen deposition in liver at 15 to 30 mg/kg, po administered via gavage for 4 weeks starting from 5th week of CCL4 stimulation by Sirius red and Masson's trichrome staining based assay; assay type: functional, organism-based; conditions: dose 15-30 mg/kg
Mus musculus [13] = experiment: Antifibrotic activity against CCL4-induced C57BL/6J mouse hepatic fibrosis model assessed as reduction in alphaSMA expression in liver at 15 to 30 mg/kg, po administered via gavage for 4 weeks starting from 5th week of CCL4 stimulation by immunohistochemical staining based assay; assay type: functional, organism-based; conditions: dose 15-30 mg/kg
Mus musculus [14] = experiment: Antifibrotic activity against CCL4-induced C57BL/6J mouse hepatic fibrosis model assessed as reduction in alphaSMA expression in liver at 15 to 30 mg/kg, po administered via gavage for 4 weeks starting from 5th week of CCL4 stimulation by Western blot analysis; assay type: functional, organism-based; conditions: dose 15-30 mg/kg
Mus musculus [15] = experiment: Antifibrotic activity against CCL4-induced C57BL/6J mouse hepatic fibrosis model assessed as reduction in collagen 1 expression in liver at 15 to 30 mg/kg, po administered via gavage for 4 weeks starting from 5th week of CCL4 stimulation by qRT-PCR analysis; assay type: functional, organism-based; conditions: dose 15-30 mg/kg
Mus musculus [16] = experiment: Antifibrotic activity against BDL-induced C57BL/6J mouse hepatic fibrosis model assessed as improvement in histological changes at 15 to 30 mg/kg, po administered via gavage starting from 3 days post-BDL by H and E staining based assay; assay type: functional, organism-based; conditions: dose 15-30 mg/kg
Mus musculus [17] = experiment: Antifibrotic activity against BDL-induced C57BL/6J mouse hepatic fibrosis model assessed as reduction in collagen 1 expression in liver at 15 to 30 mg/kg, po administered via gavage starting from 3 days post-BDL by Western blot analysis; assay type: functional, organism-based; conditions: dose 15-30 mg/kg
Mus musculus [18] = experiment: Antifibrotic activity against BDL-induced C57BL/6J mouse hepatic fibrosis model assessed as reduction in alphaSMA mRNA expression in liver at 15 to 30 mg/kg, po administered via gavage starting from 3 days post-BDL by qRT-PCR analysis; assay type: functional, organism-based; conditions: dose 15-30 mg/kg
[19] = biological target: Nuclear factor NF-kappa-B complex (Homo sapiens) (UniProt Q00653+P19838+Q04206); experiment: Inhibition of LPS-induced NFkappaB activation in human LX-2 cells assessed as reduction in p65 phosphorylation preincubated for 2 hrs followed by LPS stimulation and measured after 2 hrs by Western blot analysis; assay type: cell-based; conditions: dose 5-20 µM, time 4.0 hrs
Sequence of Nuclear factor NF-kappa-B complex (Homo sapiens) (P19838 whole entry, looked up): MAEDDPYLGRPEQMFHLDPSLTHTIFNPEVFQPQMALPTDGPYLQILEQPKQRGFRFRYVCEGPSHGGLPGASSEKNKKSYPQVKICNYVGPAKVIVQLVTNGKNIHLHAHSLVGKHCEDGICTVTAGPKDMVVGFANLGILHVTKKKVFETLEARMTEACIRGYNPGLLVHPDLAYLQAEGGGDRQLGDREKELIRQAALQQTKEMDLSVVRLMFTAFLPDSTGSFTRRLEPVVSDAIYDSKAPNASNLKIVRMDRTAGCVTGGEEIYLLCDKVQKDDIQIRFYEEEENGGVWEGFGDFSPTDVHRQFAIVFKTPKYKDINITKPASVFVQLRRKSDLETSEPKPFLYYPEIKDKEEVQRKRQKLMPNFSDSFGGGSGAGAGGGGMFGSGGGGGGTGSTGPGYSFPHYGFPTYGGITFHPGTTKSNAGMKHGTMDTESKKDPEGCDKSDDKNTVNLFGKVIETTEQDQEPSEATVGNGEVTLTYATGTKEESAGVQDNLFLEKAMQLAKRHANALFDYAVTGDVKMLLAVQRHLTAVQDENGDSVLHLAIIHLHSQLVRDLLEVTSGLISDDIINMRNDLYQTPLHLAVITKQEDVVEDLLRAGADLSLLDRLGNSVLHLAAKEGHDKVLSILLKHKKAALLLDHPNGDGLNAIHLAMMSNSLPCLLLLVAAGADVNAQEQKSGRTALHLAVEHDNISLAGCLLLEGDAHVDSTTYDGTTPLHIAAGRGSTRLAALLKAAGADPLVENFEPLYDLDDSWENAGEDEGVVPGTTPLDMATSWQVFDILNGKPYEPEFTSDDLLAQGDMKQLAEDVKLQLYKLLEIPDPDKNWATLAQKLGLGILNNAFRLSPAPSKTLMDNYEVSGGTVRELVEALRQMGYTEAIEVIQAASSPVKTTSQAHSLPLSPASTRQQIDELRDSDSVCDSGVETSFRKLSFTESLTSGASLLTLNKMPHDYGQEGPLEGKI
Sequence of Nuclear factor NF-kappa-B complex (Homo sapiens) (Q00653 whole entry, looked up): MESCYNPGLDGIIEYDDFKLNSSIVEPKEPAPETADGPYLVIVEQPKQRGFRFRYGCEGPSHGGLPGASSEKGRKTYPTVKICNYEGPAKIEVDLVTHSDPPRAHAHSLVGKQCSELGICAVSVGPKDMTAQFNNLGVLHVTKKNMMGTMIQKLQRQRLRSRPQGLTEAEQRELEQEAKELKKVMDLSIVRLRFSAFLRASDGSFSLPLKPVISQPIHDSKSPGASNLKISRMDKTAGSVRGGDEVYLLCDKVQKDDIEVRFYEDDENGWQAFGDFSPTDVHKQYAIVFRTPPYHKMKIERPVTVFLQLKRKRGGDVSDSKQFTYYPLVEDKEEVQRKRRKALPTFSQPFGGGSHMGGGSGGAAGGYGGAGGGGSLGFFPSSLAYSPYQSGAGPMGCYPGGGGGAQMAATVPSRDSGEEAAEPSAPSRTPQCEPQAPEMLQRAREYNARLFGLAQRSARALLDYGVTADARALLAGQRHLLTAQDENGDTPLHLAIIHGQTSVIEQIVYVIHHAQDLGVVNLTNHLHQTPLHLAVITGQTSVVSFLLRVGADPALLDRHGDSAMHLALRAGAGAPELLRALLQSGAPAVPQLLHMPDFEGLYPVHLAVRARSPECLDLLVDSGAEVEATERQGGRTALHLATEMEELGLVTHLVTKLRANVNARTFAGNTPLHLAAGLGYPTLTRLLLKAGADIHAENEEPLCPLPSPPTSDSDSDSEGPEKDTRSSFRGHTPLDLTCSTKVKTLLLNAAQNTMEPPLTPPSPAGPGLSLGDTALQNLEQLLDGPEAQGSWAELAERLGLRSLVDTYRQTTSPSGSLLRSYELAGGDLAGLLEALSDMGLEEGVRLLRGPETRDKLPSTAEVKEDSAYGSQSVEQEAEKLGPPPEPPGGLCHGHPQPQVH
Sequence of Nuclear factor NF-kappa-B complex (Homo sapiens) (Q04206 whole entry, looked up): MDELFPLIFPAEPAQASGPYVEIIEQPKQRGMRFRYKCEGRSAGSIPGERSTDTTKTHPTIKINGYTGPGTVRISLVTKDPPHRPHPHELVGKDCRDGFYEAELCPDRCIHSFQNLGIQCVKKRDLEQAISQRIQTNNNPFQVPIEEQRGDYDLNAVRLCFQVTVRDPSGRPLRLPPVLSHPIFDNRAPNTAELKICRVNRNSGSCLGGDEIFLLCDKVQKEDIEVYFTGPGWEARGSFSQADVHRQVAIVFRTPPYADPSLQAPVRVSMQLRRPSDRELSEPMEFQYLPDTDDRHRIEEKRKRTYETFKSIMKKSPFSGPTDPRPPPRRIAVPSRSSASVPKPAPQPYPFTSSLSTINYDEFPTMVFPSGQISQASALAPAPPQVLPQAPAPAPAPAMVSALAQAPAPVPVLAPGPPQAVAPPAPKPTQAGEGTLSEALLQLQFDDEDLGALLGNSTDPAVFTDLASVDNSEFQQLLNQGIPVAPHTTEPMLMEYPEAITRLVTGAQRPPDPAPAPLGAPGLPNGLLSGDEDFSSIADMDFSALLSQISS

[20] = biological target: MAP kinase p38 (Homo sapiens) (UniProt O15264+Q15759+Q16539+P53778); experiment: Inhibition of TGFbeta1-induced p38 phosphorylation in human LX-2 cells at 5 to 20 uM preincubated for 2 hrs followed by […] stimulation and measured after 2 hrs by Western blot analysis; assay type: cell-based; conditions: dose 5-20 µM, time 4.0 hrs
Mus musculus [21] = experiment: In vivo inhibition of p65 phosphorylation in CCL4-induced C57BL/6J mouse hepatic fibrosis model at 15 to 30 mg/kg, po administered via gavage for 4 weeks starting from 5th week of CCL4 stimulation by Western blot analysis; assay type: functional, organism-based; conditions: dose 15-30 mg/kg
Mus musculus [22] = experiment: In vivo inhibition of Smad3 phosphorylation in CCL4-induced C57BL/6J mouse hepatic fibrosis model at 15 to 30 mg/kg, po administered via gavage for 4 weeks starting from 5th week of CCL4 stimulation by Western blot analysis; assay type: functional, organism-based; conditions: dose 15-30 mg/kg
Mus musculus [23] = experiment: In vivo inhibition of p38 phosphorylation in CCL4-induced C57BL/6J mouse hepatic fibrosis model at 15 to 30 mg/kg, po administered via gavage for 4 weeks starting from 5th week of CCL4 stimulation by Western blot analysis; assay type: functional, organism-based; conditions: dose 15-30 mg/kg
Mus musculus [24] = experiment: In vivo inhibition of Smad3 phosphorylation in BDL-induced C57BL/6J mouse hepatic fibrosis model at 15 to 30 mg/kg, po administered via gavage starting from 3 days post-BDL by Western blot analysis; assay type: functional, organism-based; conditions: dose 15-30 mg/kg
Mus musculus [25] = experiment: In vivo inhibition of AKT phosphorylation in BDL-induced C57BL/6J mouse hepatic fibrosis model at 15 to 30 mg/kg, po administered via gavage starting from 3 days post-BDL by Western blot analysis; assay type: functional, organism-based; conditions: dose 15-30 mg/kg
Mus musculus [26] = experiment: In vivo inhibition of p38 phosphorylation in BDL-induced C57BL/6J mouse hepatic fibrosis model at 15 to 30 mg/kg, po administered via gavage starting from 3 days post-BDL by Western blot analysis; assay type: functional, organism-based; conditions: dose 15-30 mg/kg
Mus musculus [27] = experiment: In vivo inhibition of ERK1/2 phosphorylation in BDL-induced C57BL/6J mouse hepatic fibrosis model at 15 to 30 mg/kg, po administered via gavage starting from 3 days post-BDL by Western blot analysis; assay type: functional, organism-based; conditions: dose 15-30 mg/kg

For `COC(=O)CCC[C@@H]1[C@H]2CCCN3CCC[C@H](CN1C(=O)C(C)c1ccc(-c4ccccc4)c(F)c1)[C@@H]23` (some centres not stated), the IC50 at 48 h [1] was 38.2 µM, the fold change (FC) (RAW264.7 [2]) was 0.86 and the fold change (FC) (RAW264.7 [3]) was 0.71. The fold change (FC) (RAW264.7 [4]) was 0.59, the inhibition (LX-2 [5]) was “Dose-dependent-effect” and the inhibition (LX-2 [6]) was “Dose-dependent-effect”. The inhibition (RAW264.7 [7]) was “Active”, the inhibition (RAW264.7 [8]) was “Active” and the Activity (Mus musculus [9]) was “Active; Significant Alleviation Observed”. For the same compound, the Activity (Mus musculus [10]) was “Active”, the Activity (Mus musculus [11]) was “Active” and the Activity (Mus musculus [12]) was “Active; Dramatically Decreased The Collagen Deposition”. The Activity (Mus musculus [13]) was “Active”, the Activity (Mus musculus [14]) was “Active” and the Activity (Mus musculus [15]) was “Active”. For the same compound, the Activity (Mus musculus [16]) was “Active”, the Activity (Mus musculus [17]) was “Active” and the Activity (Mus musculus [18]) was “Active”. For the same compound, the inhibition [19] was “Dose-dependent-effect”, the inhibition [20] was “inactive” and the inhibition (Mus musculus [21]) was “Active”. The inhibition (Mus musculus [22]) was “Active”, the inhibition (Mus musculus [23]) was “inactive” and the inhibition (Mus musculus [24]) was “Active”. The inhibition (Mus musculus [25]) was “Active”, the inhibition (Mus musculus [26]) was “inactive” and the inhibition (Mus musculus [27]) was “inactive”.
